The test system of one assay is medulloblastoma. To be noted: one patient; initial response, then no durable response and relapse of the tumor (Rudin et al., 2009); cited from earlier work.
The target in the next assay is SMO-D473H (Homo sapiens, UniProt Q99835, D473H). To be noted: SMO-D473H mutation from relapsed metastatic MB tumor; cited from earlier work.
In assay [1] the test system is metastatic basal cell carcinoma (mBCC). The experiment in a line: Vismodegib treatment of metastatic basal cell carcinoma (mBCC) patients, overall response assessment. The assay is classed as in vivo, human. The source says:
Clinical responses to targeted therapies (e.g., cancer therapies) can be short-lived due to the acquisition of genetic alterations that confer drug resistance. Identification of resistance mechanisms will guide novel therapeutic strategies. Inappropriate Hh signaling is linked to several cancers, including basal cell carcinoma (BCC). Loss-of-function mutations in PTCH (˜90%) and activating mutations in SMO (˜10%) are the primary drivers in BCC. Clinical mechanisms of resistance to vismodegib (GDC-0449) were identified by assessing vismodegibsensitivity and mutation status of BCCs from patients using the FoundationOne™ next-generation sequencing (NGS) platform. FIG. 1 lists characteristics of the mBCC (metastatic basal cell carcinoma) patients treated with vismodegib.
Patient Treatment Histories
008: patient with metastatic basal cell carcinoma (mBCC). No prior surgery for BCC was reported. Prior systemic therapy for metastatic BCC included the following agent: anthracycline chemotherapy. Sites of metastases at the time of screening included soft tissue in the right hemi pelvis. Measurable lesions were identified on the skin/soft tissue next to the right OS ilium, next to the right femur and ventral surface of the OS sacrum. Non-measurable lesions were identified on the bone destruction region in OS ilium and OS sacrum. The patient received their first dose of 150 mg vismodegib Study Day 1.
001: patient with metastatic basal cell carcinoma (mBCC). Prior surgery for BCC included 6 skin neoplasm excisions. No prior topical or systemic therapy for BCC was reported. Sites of metastases at the time of screening included skin of head. Measurable lesions were identified on skin of head (lymph nodes [besides trachea and infracarinal]). The patient received their first dose of 150 mg vismodegib on Study Day 1.
002: patient with metastatic basal cell carcinoma (mBCC). Prior surgery for BCC included skin neoplasm excision. No prior topical or systemic therapy for BCC was reported. Sites of metastases at the time of screening (24 Jan. 2012) included bone. Measurable lesions were identified on lung (S 5 right side and S 10 left side), os sacrum, vertebral 9 rib, right femur, occipital, and lymph nodes (mediastenum, retrocaval). The patient received their first dose of 150 mg vismodegib on Study Day 1.
011: patient with metastatic basal cell carcinoma (mBCC). No prior surgery for BCC was reported. No prior topical or systemic therapy for BCC was reported. Sites of metastases at the time of screening included bone and lung. Measurable lesion was identified on the skin of trunk. The patient received their first dose of 150 mg vismodegib on Study Day 1.
005: patient with metastatic basal cell carcinoma (mBCC). Prior surgery for BCC included skin neoplasm excision. Prior radiation directed to head and neck (total dose: 50 Gy). No prior topical or systemic therapy for BCC was reported. Sites of metastasis at the time of screening included neck, sternum and left clavicle. Measurable lesions were identified on neck (supraclavicular region), lung (segment 10 and 3). Non-measurable lesion was identified on sternocleidomastoid muscle and bone (left clavicle and sternum). The patient received their first dose of 150 mg vismodegib on Study Day 1.

A further assay has as its target T1, SMO-G529S (Homo sapiens, UniProt Q99835, G529S).
T1 construct: expressed in transfected cells; host or cells: C3H10T1/2 cells (ATCC), transient transfection with GeneJuice
Put plainly: GLI-luciferase reporter assay, vismodegib dose response. The assay is classed as cell-based. To be noted: C3H10T1/2 cells transfected with SMO-G529S compared with SMO-WT; FIG. 7. As for the experimental part:
Six hours later, cells from one well were trypsinized and redistributed over four wells of a 12-well plate. After 16 hours the FBS content of the culture medium was reduced to 0.5% to induce formation of primary cilia, and small molecule Hh inhibitors were added at indicated concentrations. Firefly luciferase activity was determined 24 hours later with the Dual-Glo Luciferase Assay System (Promega) and read using a Wallac EnVision plate reader (Perkin Elmer). Values were divided by renilla luciferase activities to normalize for transfection efficiency. Individual experiments were carried out in duplicate or triplicate and repeated at least once. Dose response data were fit to a 4-parameter equation in GraphPad Prism: […]
In general terms: A reporter such as luciferase makes a cellular process visible.

In another assay the test system is advanced BCC. Conditions: cited from earlier work.

T1 sequence (Q99835 28-787 G529S): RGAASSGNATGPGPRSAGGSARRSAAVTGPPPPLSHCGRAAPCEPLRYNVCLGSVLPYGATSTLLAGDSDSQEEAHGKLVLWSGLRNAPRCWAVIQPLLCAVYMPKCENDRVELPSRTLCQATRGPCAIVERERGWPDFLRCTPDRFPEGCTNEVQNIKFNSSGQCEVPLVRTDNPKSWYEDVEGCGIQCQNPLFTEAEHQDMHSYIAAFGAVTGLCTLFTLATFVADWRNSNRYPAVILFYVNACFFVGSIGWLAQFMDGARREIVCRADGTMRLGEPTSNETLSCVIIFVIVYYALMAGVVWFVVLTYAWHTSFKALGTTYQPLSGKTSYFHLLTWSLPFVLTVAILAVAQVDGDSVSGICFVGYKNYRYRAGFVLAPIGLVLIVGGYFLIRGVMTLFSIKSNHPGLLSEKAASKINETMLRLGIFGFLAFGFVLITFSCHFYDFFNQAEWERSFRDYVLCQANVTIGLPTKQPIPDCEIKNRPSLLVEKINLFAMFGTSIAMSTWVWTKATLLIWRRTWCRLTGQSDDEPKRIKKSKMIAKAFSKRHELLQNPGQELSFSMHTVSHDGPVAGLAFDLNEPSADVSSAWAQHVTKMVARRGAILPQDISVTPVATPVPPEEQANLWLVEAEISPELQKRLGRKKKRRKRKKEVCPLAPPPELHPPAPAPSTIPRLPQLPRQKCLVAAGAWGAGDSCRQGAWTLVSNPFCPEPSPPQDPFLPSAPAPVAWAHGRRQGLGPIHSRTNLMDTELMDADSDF
SMO-D473H, sequence (Q99835 28-787 D473H): as the sequence (Q99835 28-787 G529S) above, with D446H, S502G counted along it

`CS(=O)(=O)c1ccc(C(=O)Nc2ccc(Cl)c(-c3ccccn3)c2)c(Cl)c1` [vismodegib]: in the assay with medulloblastoma, the response to treatment entry is reported as “dramatic response”. The “drug binding in vitro” value on SMO-D473H is reported as “abrogate drug binding”. Besides, the “first PR on target lesions” value in assay [1] (patient 001, 150 mg vismodegib) turned out to be 397 Study day. The “overall response assessment revealed disease progression” value in assay [1] (patient 001, 150 mg vismodegib) was 516 Study Day. The “overall response assessment showed disease progression” value was 399 Study Day in assay [1] (patient 002, 150 mg vismodegib) and 673 Study Day in assay [1] (patient 008, 150 mg vismodegib). Moreover, in assay [1] (patient 002, 150 mg vismodegib, cycle 7), the “first PR” value is listed as 172 Study day. Also, the “overall response assessment showed progressive disease” value in assay [1] (patient 005, 150 mg vismodegib) is recorded as 336 Study Day. For the same compound, in assay [1] (patient 011, 150 mg vismodegib), the “overall response assessment revealed progressive disease” value is 310 Study Day. In assay [1] (patient 011, 150 mg vismodegib, cycle 11, Study day 282), the response during treatment entry is reported as “stable disease”. Besides, the “sensitivity to vismodegib (Gli-luciferase reporter activity)” value on SMO-G529S is “reduced sensitivity”. Besides, the “clinical outcome of treated BCC patients” value in the assay with advanced BCC (majority of BCC patients (Sekulic et al., 2012)) was “clinical benefit, including both complete and partial responses”. Also, the “advanced BCC patients developing resistance to vismodegib” value in the assay on advanced BCC (within the first year of treatment, preliminary estimate (Chang and Oro, 2012)) was “up to 20%”.
